Source: ChEMBL document CHEMBL1150477, “Development of angiotensin II antagonists with equipotent affinity for human AT1 and AT2 receptor subtypes” (Bioorg Med Chem Lett, 1994)
Where a chain is given by its changes, count along the chain named.

Key:
[1] = biological target: T1, Type-2 angiotensin II receptor (Homo sapiens, UniProt P50052); assay: […] inhibitory concentration against AT2 receptor of human adrenal membrane
T1 sequence (P50052 whole entry): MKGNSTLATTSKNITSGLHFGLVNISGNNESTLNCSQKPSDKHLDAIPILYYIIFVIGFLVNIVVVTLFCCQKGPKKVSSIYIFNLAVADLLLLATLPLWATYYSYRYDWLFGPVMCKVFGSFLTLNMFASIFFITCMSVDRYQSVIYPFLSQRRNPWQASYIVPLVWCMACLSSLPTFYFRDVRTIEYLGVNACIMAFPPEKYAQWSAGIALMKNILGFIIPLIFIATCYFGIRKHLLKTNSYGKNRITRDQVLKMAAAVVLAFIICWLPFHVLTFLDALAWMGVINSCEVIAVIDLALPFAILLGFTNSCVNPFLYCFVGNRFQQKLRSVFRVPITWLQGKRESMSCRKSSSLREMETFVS

[2] = biological target: T2, Type-2 angiotensin II receptor (Rattus norvegicus, UniProt P35351); assay: […] inhibitory concentration against AT2 receptor of rat adrenal membrane
T2 sequence (P35351 whole entry): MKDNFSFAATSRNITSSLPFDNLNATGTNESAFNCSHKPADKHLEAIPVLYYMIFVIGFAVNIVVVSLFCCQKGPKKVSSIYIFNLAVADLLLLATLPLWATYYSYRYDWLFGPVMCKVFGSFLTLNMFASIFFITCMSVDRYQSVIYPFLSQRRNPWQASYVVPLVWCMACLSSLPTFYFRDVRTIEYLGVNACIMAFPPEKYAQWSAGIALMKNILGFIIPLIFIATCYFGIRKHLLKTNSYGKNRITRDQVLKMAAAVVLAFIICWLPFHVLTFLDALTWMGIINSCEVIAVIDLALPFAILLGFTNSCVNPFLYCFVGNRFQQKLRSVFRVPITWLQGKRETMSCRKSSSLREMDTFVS

[3] = biological target: T3, Type-1 angiotensin II receptor (Oryctolagus cuniculus, UniProt P34976); assay: […] inhibitory concentration against Angiotensin II receptor, type 1 of rabbit aorta membrane
T3 sequence (P34976 whole entry): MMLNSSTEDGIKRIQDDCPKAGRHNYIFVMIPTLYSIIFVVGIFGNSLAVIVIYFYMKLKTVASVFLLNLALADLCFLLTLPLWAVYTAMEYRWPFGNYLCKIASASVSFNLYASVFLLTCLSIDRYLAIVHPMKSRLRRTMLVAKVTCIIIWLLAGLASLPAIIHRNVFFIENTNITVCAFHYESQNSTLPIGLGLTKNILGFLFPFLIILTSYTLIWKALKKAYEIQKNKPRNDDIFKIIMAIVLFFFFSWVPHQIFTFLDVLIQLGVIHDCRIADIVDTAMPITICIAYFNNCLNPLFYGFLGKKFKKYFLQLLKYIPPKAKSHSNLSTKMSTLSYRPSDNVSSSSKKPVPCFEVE

[4] = biological target: T2, Type-2 angiotensin II receptor; assay: […] inhibitory concentration against Angiotensin II, type 2 of rat midbrain membrane
[5] = biological target: T4, Angiotensin II receptor (AT-1) type-1 (Rattus norvegicus, UniProt P29089+P25095); assay: […] inhibitory concentration against Angiotensin II receptor, type 1 of rat adrenal membrane
T4 sequence (P29089 whole entry): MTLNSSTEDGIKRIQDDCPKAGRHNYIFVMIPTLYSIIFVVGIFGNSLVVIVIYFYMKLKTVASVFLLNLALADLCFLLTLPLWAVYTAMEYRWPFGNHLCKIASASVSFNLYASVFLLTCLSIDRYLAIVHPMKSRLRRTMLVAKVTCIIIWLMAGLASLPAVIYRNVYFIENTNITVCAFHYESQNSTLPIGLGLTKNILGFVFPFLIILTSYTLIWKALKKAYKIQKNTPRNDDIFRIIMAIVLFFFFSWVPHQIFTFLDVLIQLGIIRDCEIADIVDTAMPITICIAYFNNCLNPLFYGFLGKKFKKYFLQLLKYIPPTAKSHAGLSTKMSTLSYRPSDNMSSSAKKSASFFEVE
T4 sequence (P25095 whole entry): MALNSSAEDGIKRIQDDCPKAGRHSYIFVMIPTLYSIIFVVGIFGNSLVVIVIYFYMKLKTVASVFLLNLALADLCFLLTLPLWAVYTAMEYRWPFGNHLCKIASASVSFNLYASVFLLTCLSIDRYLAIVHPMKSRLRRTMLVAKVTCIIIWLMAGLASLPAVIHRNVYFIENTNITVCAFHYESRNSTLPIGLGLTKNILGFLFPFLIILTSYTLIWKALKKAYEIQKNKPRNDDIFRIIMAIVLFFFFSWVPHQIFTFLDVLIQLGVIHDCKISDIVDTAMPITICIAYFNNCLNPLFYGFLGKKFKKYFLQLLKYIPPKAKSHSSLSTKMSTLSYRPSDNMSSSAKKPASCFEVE

[6] = species: Oryctolagus cuniculus; assay: Ratio of inhibitory concentration against AT2 receptor of rat midbrain to AT1 receptor of rabbit aorta
[7] = biological target: Angiotensin II receptor (Homo sapiens) (UniProt P30556+P50052); assay: Ratio of inhibitory concentration against AT2 receptor and AT1 receptor of human adrenal membrane
Sequence of Angiotensin II receptor (Homo sapiens) (P30556 whole entry, looked up, one chain of several): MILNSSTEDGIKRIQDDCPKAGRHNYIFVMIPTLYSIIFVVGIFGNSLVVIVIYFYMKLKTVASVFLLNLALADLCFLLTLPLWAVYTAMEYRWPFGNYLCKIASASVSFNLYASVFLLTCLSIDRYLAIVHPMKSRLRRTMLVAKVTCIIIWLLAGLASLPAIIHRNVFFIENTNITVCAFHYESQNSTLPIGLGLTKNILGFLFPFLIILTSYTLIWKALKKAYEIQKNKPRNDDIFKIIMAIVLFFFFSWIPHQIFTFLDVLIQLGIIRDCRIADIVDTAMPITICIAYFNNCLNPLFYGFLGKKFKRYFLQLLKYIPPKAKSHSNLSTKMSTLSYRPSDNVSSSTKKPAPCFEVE

[8] = biological target: Angiotensin II receptor (Rattus norvegicus) (UniProt P29089+P25095+P35351); assay: Ratio of inhibitory concentration against AT2 receptor and AT1 receptor of rat adrenal membrane
[9] = biological target: T5, Type-1 angiotensin II receptor (Homo sapiens, UniProt P30556); assay: […] inhibitory concentration against Angiotensin II receptor, type 1 of human adrenal membrane
T5 sequence (P30556 whole entry): T3 sequence (P34976 whole entry) with M2I, A49V, V254I, V270I, H272R, K311R, S349T, V353A

Row | SMILES | IC50 [1] | IC50 [2] | IC50 [3] | IC50 [4] | IC50 [5] | Ratio [6] | Ratio [7] | Ratio [8] | IC50 [9]
1 | CCc1ccc(C(=O)NS(=O)(=O)c2ccccc2-c2ccc(Cn3c(CC)nc4ccc(NC(=O)NC(C)C)cc4c3=O)c(F)c2)c(F)c1 | 3.1 nM | 0.34 nM | 0.19 nM | 0.25 nM | 0.14 nM | 1.3 | 2 | 2.5 | 1.6 nM
2 | CCCCOC(=O)NS(=O)(=O)c1ccccc1-c1ccc(Cn2c(CC)nc3ccc(NC(=O)N4CCOCC4)cc3c2=O)c(F)c1 | 32 nM | 2.5 nM | 3.8 nM | 1.3 nM | 1.3 nM | 0.38 | 1 | 2.2 | 33 nM
3 | CCCc1nc2ccc(NC(=O)N3CCOCC3)cc2c(=O)n1Cc1ccc(-c2ccccc2S(=O)(=O)NC(=O)OCCC(C)C)cc1F | 3.3 nM | 0.5 nM | 0.24 nM | 0.48 nM | 0.13 nM | 2.3 | 4.7 | 4.3 | 0.71 nM
4 | Cc1nc2ccc(NC(=O)N(C)C(C)C)cc2c(=O)n1Cc1ccc(-c2ccccc2S(=O)(=O)NC(=O)OCCC(C)C)cc1F | 12.5 nM | 0.72 nM | 2.3 nM | 1.05 nM | 0.58 nM | 0.45 | 0.47 | 1.24 | 26.5 nM
5 | CCCCOC(=O)NS(=O)(=O)c1ccccc1-c1ccc(Cn2c(CCCC)nc3ccc(NC(=O)N(C)C(C)C)cc3c2=O)cc1 | 60 nM |  | 0.24 nM | 2.4 nM |  |  |  |  | 
6 | Cc1nc2ccc(NC(=O)NC(C)C)cc2c(=O)n1Cc1ccc(-c2ccccc2S(=O)(=O)NC(=O)OCCC(C)C)cc1F | 11 nM | 0.63 nM | 1.2 nM | 0.7 nM | 0.5 nM | 0.59 | 0.93 | 1.2 | 15 nM
7 | CCNC(=O)Nc1ccc2nc(CC)n(Cc3ccc(-c4ccccc4S(=O)(=O)NC(=O)c4ccccc4F)cc3F)c(=O)c2c1 | 65 nM | 4.5 nM | 4 nM | 1.6 nM | 3.9 nM | 0.46 | 1.1 | 1.4 | 59 nM
8 | Cc1nc2ccc(NC(=O)N(C)C)cc2c(=O)n1Cc1ccc(-c2ccccc2S(=O)(=O)NC(=O)OCCC2CC2)cc1F | 12 nM | 2.4 nM | 2.3 nM | 6.6 nM | 2.3 nM | 3.3 | 0.96 | 1.2 | 12 nM
9 | CCc1nc2ccc(NC(=O)N3CCOCC3)cc2c(=O)n1Cc1ccc(-c2ccccc2S(=O)(=O)NC(=O)OCCC(C)C)cc1F | 65 nM | 0.95 nM | 2 nM | 0.31 nM | 0.66 nM | 0.16 |  | 1.5 | 18 nM
10 | CCCc1nc2ccc(NC(=O)NC(C)C)cc2c(=O)n1Cc1ccc(-c2ccccc2S(=O)(=O)NC(=O)COCC(C)C)cc1F | 3.5 nM | 0.38 nM | 0.52 nM | 1 nM | 0.17 nM | 1.7 | 2.3 | 2.1 | 1.5 nM
